Reference: patent US5624923A, “Tricyclic diazepine vasopressin antagonists and oxytocin antagonists” (priority 1995, dated 1997)

How the values were obtained:
Rat Hepatic V1 Receptors = target: T1, Rat Hepatic V1 Receptors (Rattus norvegicus, UniProt P30560); assay: Binding Assay to Rat Hepatic V1 Receptors; conditions: rat liver membranes; read-out: V1 IC50
T1 construct: Rat liver plasma membranes expressing the vasopressin V1 receptor subtypes; from tissue; host or cells: rat liver plasma membranes

oxytocin receptors = target: T2, oxytocin receptors (Rattus norvegicus, UniProt P70536); assay: Oxytocin Receptor Binding; conditions: for IC50: 1.0 nM [3H]oxytocin; for inhibition at 10 µM / inhibition at 1.25 µM: [3H]oxytocin
T2 construct: The uteri are dissected out, cleaned of fat and connective tissues; from tissue; host or cells: uterus of DES-treated female Sprague-Dawley rats
T2 sequence (P70536 1-388): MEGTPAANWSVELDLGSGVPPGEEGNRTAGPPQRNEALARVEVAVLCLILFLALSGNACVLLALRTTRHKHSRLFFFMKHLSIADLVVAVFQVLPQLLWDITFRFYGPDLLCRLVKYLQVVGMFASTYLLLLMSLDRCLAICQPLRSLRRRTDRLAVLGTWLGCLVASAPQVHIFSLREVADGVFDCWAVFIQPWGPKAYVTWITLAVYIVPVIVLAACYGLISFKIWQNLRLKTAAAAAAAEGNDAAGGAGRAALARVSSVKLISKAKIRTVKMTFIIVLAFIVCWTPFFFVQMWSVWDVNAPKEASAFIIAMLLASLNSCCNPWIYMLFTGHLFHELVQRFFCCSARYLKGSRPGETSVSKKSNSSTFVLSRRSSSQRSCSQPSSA
Method in brief: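 IC50 is the concentration displacing 50% of 1.0 nM [3H]OT, incubated 60 min at 22 °C in pH 7.4 Tris/MgCl2 buffer plus protease inhibitors, then filtered. Receptor source: uterine membranes from rats given 0.3 mg/kg DES i.m. 18 h earlier. 1.0 uM cold OT defined non-specific binding.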

Vasopressin V2 = Vasopressin V2 Antagonist Activity in Conscious Hydrated Rats; format: in vivo, rat; conditions: AVP 0.4 μg/kg i.p.
Method in brief: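 Four-hour urine output, osmolality and electrolytes (Na+, K+, Cl−) recorded in water-loaded rats (30 mL/kg deionized water orally) given AVP i.p. at 0.4 μg/kg. Test compounds were given orally at 0.1–100 mg/kg 1 h before AVP; 2–4 rats per compound.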

T1 sequence (P30560 whole entry): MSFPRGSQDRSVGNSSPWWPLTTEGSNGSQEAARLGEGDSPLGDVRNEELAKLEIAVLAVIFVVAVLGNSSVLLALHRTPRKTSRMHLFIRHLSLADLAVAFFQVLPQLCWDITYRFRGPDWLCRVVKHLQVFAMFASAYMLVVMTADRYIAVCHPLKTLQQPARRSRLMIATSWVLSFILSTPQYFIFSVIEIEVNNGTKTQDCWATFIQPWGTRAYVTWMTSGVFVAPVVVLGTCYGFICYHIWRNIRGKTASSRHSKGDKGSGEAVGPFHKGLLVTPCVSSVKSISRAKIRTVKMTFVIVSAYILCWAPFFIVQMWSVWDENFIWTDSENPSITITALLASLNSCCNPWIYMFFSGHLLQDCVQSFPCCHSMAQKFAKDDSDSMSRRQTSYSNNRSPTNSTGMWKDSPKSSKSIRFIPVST

IC50 (Rat Hepatic V1 Receptors) [nM]	IC50 (oxytocin receptors) [nM]	inhibition at 10 µM (oxytocin receptors) [%]	inhibition at 1.25 µM (oxytocin receptors) [%]	SMILES	Osmolality (Vasopressin V2; 10 mg/kg orally) [mOsm/kg]	Urine Volume (Vasopressin V2; 10 mg/kg orally) [ml/4 hrs]	Osmolality (Vasopressin V2; 1 mg/kg orally) [mOsm/kg]	Urine Volume (Vasopressin V2; 1 mg/kg orally) [ml/4 hrs]	Osmolality (Vasopressin V2; 3 mg/kg orally) [mOsm/kg]	Urine Volume (Vasopressin V2; 3 mg/kg orally) [ml/4 hrs]
0.9	60	87	–	Cc1ccccc1CC(=O)Nc1ccc(C(=O)N2Cc3cccn3Cc3ccccc32)cc1 [Example 93, N-[4(5H-Pyrrolo[2,1-c][1,4]benzodiazepin-10(11H)-ylcarbonyl)phenyl]-2-methylbenzeneacetamide]	–	–	–	–	–	–
130	675	96	–	O=C(Nc1ccc(C(=O)N2Cc3ccc(Cn4ccnc4)n3Cc3ccccc32)cc1)c1ccc(Cl)cc1Cl [Example 582, 2,4-Dichloro-N-[4-[[3-(1H-imidazol-1-ylmethyl)-5H-pyrrolo[2,1-c][1,4]benzodiazepin-10(11H)-yl]carbonyl]phenyl]benzamide]	604	9.5	–	–	–	–
–	150	76	–	COc1cc(C(=O)N2Cc3cccn3Cc3ccccc32)ccc1NC(=O)c1cccc(F)c1C [Example 479, N-[4-(5H-pyrrolo[2,1-c][1,4]benzodiazepin-10(11H)-ylcarbonyl)-2-methoxy-phenyl]-3-fluoro-2-methylbenzamide]	1042	6	–	–	–	–
94	265	96	–	O=C(Nc1ccc(C(=O)N2Cc3cccn3Cc3ccccc32)cc1)c1c(Cl)cccc1Cl [Example 469, N-[4-(5H-pyrrolo[2,1-c][1,4]benzodiazepin-10(11H)-ylcarbonyl)phenyl]-2,6-dichlorobenzamide]	548	11.3	–	–	–	–
–	450	92	–	O=C(Nc1ccc(C(=O)N2Cc3cccn3Cc3ccccc32)c(Cl)c1)c1ccc(F)cc1Cl [Example 527, N-[4-(5H-pyrrolo[2,1-c][1,4]benzodiazepin-10(11H)-ylcarbonyl]-3-chlorophenyl]-4-fluoro-2-chlorobenzamide]	430	19.5	–	–	–	–
1000	240	88	–	Cc1c(F)cccc1C(=O)Nc1ccc(C(=O)N2Cc3cccn3Cc3ccccc32)c(Cl)c1 [Example 481, N-[4-(5H-pyrrolo[2,1-c][1,4]benzodiazepin-10(11H)-ylcarbonyl)-3-chlorophenyl]-3-fluoro-2-methylbenzamide]	473	17.2	–	–	–	–
67	8000	56	–	CC(=O)OC(C(=O)Nc1ccc(C(=O)N2Cc3cccn3Cc3ccccc32)cc1)c1ccccc1 (stereo not drawn) [Example 587, α-(Acetyloxy)-N-[4-(5H-pyrrolo[2,1-c][1,4]benzodiazepin-10(11H)-ylcarbonyl)phenyl]benzeneacetamide]	868	9	–	–	–	–
9	460	98	–	CSc1ccccc1C(=O)Nc1ccc(C(=O)N2Cc3cccn3Cc3ccccc32)cc1 [Example 85, N-[4-(5H-Pyrrolo[2,1-c][1,4]benzodiazepin-10(11H)-ylcarbonyl)phenyl]-2-(methylthio)benzamide]	–	–	–	–	–	–
120	660	98	–	O=C(Nc1ccc(C(=O)N2Cc3cccn3Cc3ccccc32)cc1)c1cc(Cl)ccc1Cl [Example 4, N-[4-(5H-pyrrolo[2,1-c][1,4]benzodiazepin-10(11H)-ylcarbonyl)phenyl]-2,5-dichlorobenzamide]	571	16.9	1129	2	646 ± 115	9.5 ± 1.2
14	300	99	–	CN(C)CN(C(=O)c1ccc(Cl)cc1Cl)c1ccc(C(=O)N2Cc3cccn3Cc3ccccc32)cc1 [Example 490, N-[(Dimethylamino)methyl]-N-[4-(5H-pyrrolo[2,1-c][1,4]benzodiazepin-10(11H)-ylcarbonyl)phenyl]-2,4-dichlorobenzamide]	487 ± 38	71.5 ± 1.6	–	–	–	–
68	1200	87	–	O=C(Nc1ccc(C(=O)N2Cc3ccnn3Cc3ccccc32)cc1)c1ccc(Cl)cc1Cl [Example 217, N-[4-(4H-Pyrazolo[5,1-c][1,4]benzo-diazepin-5(10H)-ylcarbonyl)phenyl]-2,4-dichlorobenzamide]	466	14.3	–	–	–	–
–	29	–	97	COc1cc(C(=O)N2Cc3cccn3Cc3ccccc32)ccc1NC(=O)c1ccccc1C [Example 477, N-[4-(5H-pyrrolo[2,1-c][1,4]benzodiazepin-10(11H)-ylcarbonyl)-2-methoxy-phenyl]-2-methylbenzamide]	701	5.3	–	–	–	–
–	1170	90	–	O=C(Nc1ccc(C(=O)N2Cc3cccn3Cc3ccccc32)c(Cl)c1)c1ccccc1C(F)(F)F [Example 528, N-[4-(5H-pyrrolo[2,1-c][1,4]benzodiazepin-10(11H)-ylcarbonyl]-3-chlorophenyl]-2-(trifluoromethyl)benzamide]	647	11.3	–	–	–	–
45	350	99	–	O=C(Nc1ccc(C(=O)N2Cc3cccn3Cc3ccccc32)c(Cl)c1)c1ccc(Cl)cc1Cl [Example 471]	507 ± 38	14.1 ± 1.9	–	–	–	–
–	1000	95	–	O=C(Nc1ccc(C(=O)N2Cc3cccn3Cc3sccc32)cc1)c1ccc(Cl)cc1Cl [Example 274, N-(4-(5H-pyrrolo[1,2-a]thieno-[3,2-e][1,4]diazepin-4(10H)-ylcarbonyl)phenyl]-2,4-dichloro-benzamide]	1177	3	–	–	–	–
–	150	98	–	O=C(Nc1ccc(C(=O)N2Cc3cccn3Cc3ccccc32)cc1)c1cc([N+](=O)[O-])ccc1Cl [Example 480, N-[4-(5H-pyrrolo[2,1-c][1,4]benzodiazepin-10(11H)-ylcarbonyl)phenyl]-2-chloro-5-nitrobenzamide]	827	8.8	–	–	–	–
87	–	18	–	O=C(Nc1ccc(C(=O)N2Cc3cccn3Cc3ccccc32)cc1)c1cccc(C(F)(F)F)c1 [Example 474, N-[4-(5H-pyrrolo[2,1-c][1,4]benzodiazepin-10(11H)-ylcarbonyl)phenyl]-3-(trifluoromethyl)benzamide]	619	11.5	–	–	–	–
58	4000	64	–	Cc1ccccc1C(=O)Nc1ccc(C(=O)N2Cc3ccnn3Cc3ccccc32)cc1 [Example 210, N-[4-(4H-Pyrazolo[5,1-c][1,4]benzodiazepin-5(10H)-ylcarbonyl)phenyl]-2-methylbenzamide]	451	15.2	–	–	–	–
–	310	99	–	Cc1ccccc1C(=O)Nc1ccc(C(=O)N2Cc3cccn3Cc3ccccc32)cc1Cl [Example 530, N-[4-(5H-Pyrrolo[2,1-c][1,4]benzodiazepin-10(11H)-ylcarbonyl)-2-chlorophenyl]-2-methylbenzamide]	914	6	–	–	–	–
–	280	98	–	Cc1cccc(C(=O)Nc2ccc(C(=O)N3Cc4cccn4Cc4ccccc43)c(Cl)c2)c1C [Example 525, N-[4-(5H-pyrrolo[2,1-c][1,4]benzodiazepin-10(11H)-ylcarbonyl]-3-chlorophenyl]-2,3-dimethylbenzamide]	557	13	–	–	–	–
–	40	–	97	COc1cc(C(=O)N2Cc3cccn3Cc3ccccc32)ccc1NC(=O)c1ccc(Cl)cc1Cl [Example 478, N-[4-(5H-pyrrolo[2,1-c][1,4]benzodiazepin-10(11H)-ylcarbonyl)-2-methoxy-phenyl]-2,4-dichlorobenzamide]	1399	3	–	–	–	–

SMILES	IC50 (Rat Hepatic V1 Receptors) [nM]	IC50 (oxytocin receptors) [nM]	inhibition at 10 µM (oxytocin receptors) [%]	inhibition at 1.25 µM (oxytocin receptors) [%]	Osmolality (Vasopressin V2; 10 mg/kg orally) [mOsm/kg]	Urine Volume (Vasopressin V2; 10 mg/kg orally) [ml/4 hrs]	Osmolality (Vasopressin V2; 1 mg/kg orally) [mOsm/kg]	Urine Volume (Vasopressin V2; 1 mg/kg orally) [ml/4 hrs]	Osmolality (Vasopressin V2; 3 mg/kg orally) [mOsm/kg]	Urine Volume (Vasopressin V2; 3 mg/kg orally) [ml/4 hrs]
Cc1ccc(F)cc1C(=O)Nc1ccc(C(=O)N2Cc3cccn3Cc3ccccc32)c(Cl)c1 [Example 482, N-[4-(5H-pyrrolo[2,1-c][1,4]benzodiazepin-10(11H)-ylcarbony)-3-chlorophenyl]-5-fluoro-2-methylbenzamide]	410	126	97	–	372 ± 17	22 ± 0.9	–	–	–	–
